Experimental data reported in PMC9578396, “Intrinsic Antibacterial Activity of Xeruborbactam In Vitro: Assessing Spectrum and Mode of Action” (Antimicrobial Agents and Chemotherapy, 2022).
≈ marks a conversion by molar mass, not a printed value. Like-named read-outs stand apart in the source and are kept apart here.

How the values were obtained:
Format in all cases: cell-based
Acinetobacter baumannii = experiment: Broth microdilution MIC (CLSI), Acinetobacter baumannii; conditions: Acinetobacter baumannii
Text: (§1) (i) Panels of engineered bacterial strains containing various combinations of porin and efflux mutations were used. The construction of all the strains used in the study is described in detail in references, [44], and [45]. (ii) KPC-producing clinical isolates and their derivatives that lost KPC plasmids were used also. These strains and their origins are described in the Table S2. (iii) Finally, KPC-producing clinical isolates enriched in strains with porin mutations were used. The mutations identified include various deletions, insertions, nonsense mutations, and decreased expression. Most of the isolates were obtained from JMI Laboratories or International Health Management Associates (IHMA); they were collected in the course of global surveillance studies.
(§2) Bacterial isolates were subjected to broth microdilution susceptibility testing, performed according to Clinical and Laboratory Standards Institute (CLSI) methods ([46]), using panels prepared in-house. […] Xeruborbactam was synthesized at Qpex Biopharma, San Diego, CA. Avibactam was purchased from eNovation Chemicals LLC, Bridgewater, NJ, USA; zidebactam was from MedKoo Biosciences, Inc., Morrisville, NC, and nacubactam was from Advanced ChemBlocks, Hayward, CA. Durlobactam was synthesized at Acme Bioscience, Palo Alto, CA, USA.

Escherichia coli = experiment: Broth microdilution MIC (CLSI), Escherichia coli
Text: as §1, §2

Pseudomonas aeruginosa = experiment: Broth microdilution MIC (CLSI), Pseudomonas aeruginosa; conditions: Pseudomonas aeruginosa
Text: as §1, §2

Klebsiella pneumoniae = experiment: microbe, parasite or virus in culture; conditions: Klebsiella pneumoniae
Text: as §1, §2

Enterobacterales = experiment: Broth microdilution MIC (CLSI), Enterobacterales; conditions: read-out: antibacterial potency (MIC)
Text: Bacterial isolates were subjected to broth microdilution susceptibility testing, performed according to Clinical and Laboratory Standards Institute (CLSI) methods ([46]), using panels prepared in-house. Meropenem was purchased from Sandoz, and all other antibiotics were from Sigma-Aldrich. Xeruborbactam was synthesized at Qpex Biopharma, San Diego, CA. Avibactam was purchased from eNovation Chemicals LLC, Bridgewater, NJ, USA; zidebactam was from MedKoo Biosciences, Inc., Morrisville, NC, and nacubactam was from Advanced ChemBlocks, Hayward, CA. Durlobactam was synthesized at Acme Bioscience, Palo Alto, CA, USA.

[1] = strain AB1007, wild type, read-out: MIC
[2] = strain ACM1015, ΔadeIJK ΔadeABC
[3] = strain ACM1027, adeN (AdeIJK overexpression)
[4] = strain ACM1030, adeS (AdeABC overexpression)
[5] = EC1078, PBP2 same as MG1655, PBP3 I332V
[6] = EC1081, PBP2 same as MG1655, PBP3 Q227H
[7] = EC1085, PBP2 T331P, PBP3 A233T I332V
[8] = EC1088, PBP2 A308G, PBP3 same as MG1655
[9] = EC1098, PBP2 V217M, PBP3 YRIN ins, I532L
[10] = EC1103, PBP2 same as MG1655, PBP3 YRIN ins, Q227H, E349K, I532L
[11] = EC1105, PBP2 A543T, PBP3 YRIN ins, Q227H, E349K, I532L
[12] = EC1119, PBP2 same as MG1655, PBP3 YRIN ins, Q227H, E349K, I532L
[13] = EC1121, PBP2 V217M, PBP3 YRIN ins, E349K, I532L
[14] = Escherichia coli, strain ECM5497, wild type, read-out: MIC
[15] = Escherichia coli, strain ECM6001, ΔacrB
[16] = Escherichia coli, strain ECM6502, marR (AcrAB overexpression)
[17] = strain PAM1020, wild type, read-out: MIC
[18] = strain PAM1032, nalB (MexAB-OprM overexpression)
[19] = strain PAM1033, nfxB (MexCD-OprJ overexpression)
[20] = strain PAM1034, nfxC (MexEF-OprN overexpression)
[21] = KPM1026a, parent, read-out: MIC
[22] = strain KPM1026a, wild type, read-out: MIC
[23] = strain KPM1027, ramR, read-out: MIC
[24] = strain KPM1171, ramR ompK36_1171, read-out: MIC
[25] = strain KPM2040, ompK36_2040, read-out: MIC
[26] = strain KPM2613, ΔompK35 ompK36_2040

Work on `CC1=C[C@@H]2CN(C(=O)N2OS(=O)(=O)O)[C@@H]1C(N)=O` [Durlobactam] yielded an MIC (Acinetobacter baumannii; [1]) of 64 µg/mL, an MIC (Acinetobacter baumannii; strain ACM1013, ΔadeIJK) of 32 µg/mL and an MIC (Acinetobacter baumannii; strain ACM1014, ΔadeABC) of 64 µg/mL. For the same molecule, the MIC (Acinetobacter baumannii; [2]) was 16 µg/mL, the MIC (Acinetobacter baumannii; [3]) was 128 µg/mL and the MIC (Acinetobacter baumannii; [4]) was 64 µg/mL. For the same molecule, the MIC (Escherichia coli; [5]) was 8, the MIC (Escherichia coli; [6]) was 0.25 and the MIC (Escherichia coli; [7]) was 32. The MIC (Escherichia coli; [8]) was 0.5, the MIC (Escherichia coli; EC1097, PBP2 M574I, PBP3 Q227H) was 1 and the MIC (Escherichia coli; [9]) was 0.5. The MIC (Escherichia coli; [10]) was 0.25, the MIC (Escherichia coli; [11]) was 1 and the MIC (Escherichia coli; [12]) was 8. For the same molecule, the MIC (Escherichia coli; [13]) was 0.5, the MIC (Escherichia coli; [14]) was 0.5 µg/mL and the MIC (Escherichia coli; [15]) was 0.5 µg/mL. The MIC (Escherichia coli; [16]) was 0.25 µg/mL, the MIC (Pseudomonas aeruginosa; after inactivation of MexAB-OprM, read-out: MIC) was 8 µg/mL and the MIC (Pseudomonas aeruginosa; before inactivation of MexAB-OprM (wild type), read-out: MIC) was 64 µg/mL. For the same molecule, the MIC (Pseudomonas aeruginosa; [17]) was 64 µg/mL, the MIC (Pseudomonas aeruginosa; [18]) was greater than 256 µg/mL and the MIC (Pseudomonas aeruginosa; [19]) was 4 µg/mL. It also gave an MIC (Pseudomonas aeruginosa; [20]) of 128 µg/mL, an MIC (Pseudomonas aeruginosa; strain PAM1106, mexA::Tet) of 8 µg/mL and an MIC (Pseudomonas aeruginosa; strain PAM1154, oprM::Hg) of 8 µg/mL. The MIC (Klebsiella pneumoniae; KPM1026a, alone, read-out: MIC) was 0.25 µg/mL, the MIC (Klebsiella pneumoniae; [21]) was 0.25 µg/mL and the MIC (Klebsiella pneumoniae; KPM3532 (TolQ::M189K), alone) was 8 µg/mL. It also gave an MIC (Klebsiella pneumoniae; KPM3532, TolQ::M189K) of 8 µg/mL, an MIC (Klebsiella pneumoniae; KPM3534 (TolQ::S31F), alone) of 16 µg/mL and an MIC (Klebsiella pneumoniae; KPM3534, TolQ::S31F) of 16 µg/mL. It also gave an MIC (Klebsiella pneumoniae; KPM4235, TolQ::IP(183–1844)PR) of 16 µg/mL, an MIC (Klebsiella pneumoniae; KPM4236, TolQ::TAA at aa 103) of 16 µg/mL and an MIC (Klebsiella pneumoniae; KPM4238, TolQ::S25F) of 16 µg/mL. It also gave an MIC (Klebsiella pneumoniae; KPM4239, TolQ::S28F) of 16 µg/mL, an MIC (Klebsiella pneumoniae; KPM4240, TolQ::S25Y) of 16 µg/mL and an MIC (Klebsiella pneumoniae; [22]) of 0.5 µg/mL. The MIC (Klebsiella pneumoniae; [23]) was 0.5 µg/mL, the MIC (Klebsiella pneumoniae; [24]) was 32 µg/mL and the MIC (Klebsiella pneumoniae; [25]) was 4 µg/mL. The MIC (Klebsiella pneumoniae; strain KPM2600, ΔompK35) was 0.5 µg/mL, the MIC (Klebsiella pneumoniae; [26]) was 8 µg/mL and the MIC (Klebsiella pneumoniae; strain KPM2696, ΔacrB) was 0.25 µg/mL. For the same molecule, the MIC (Enterobacterales) was 0.125 to 0.5 µg/mL (≈ 0.451 to 1.8 µM).
For `O=C(NNC(=O)[C@@H]1CC[C@@H]2CN1C(=O)N2OS(=O)(=O)O)[C@@H]1CCCNC1` [Zidebactam], the MIC (Acinetobacter baumannii; [1]) was greater than 256 µg/mL, the MIC (Acinetobacter baumannii; strain ACM1013, ΔadeIJK) was greater than 256 µg/mL and the MIC (Acinetobacter baumannii; strain ACM1014, ΔadeABC) was greater than 256 µg/mL. The MIC (Acinetobacter baumannii; [2]) was greater than 256 µg/mL, the MIC (Acinetobacter baumannii; [3]) was greater than 256 µg/mL and the MIC (Acinetobacter baumannii; [4]) was greater than 256 µg/mL. For the same molecule, the MIC (Escherichia coli; [5]) was 8, the MIC (Escherichia coli; [6]) was 0.125 and the MIC (Escherichia coli; [7]) was 16. The MIC (Escherichia coli; [8]) was 0.25, the MIC (Escherichia coli; EC1097, PBP2 M574I, PBP3 Q227H) was 0.25 and the MIC (Escherichia coli; [9]) was 0.25. It also gave an MIC (Escherichia coli; [10]) of 0.25, an MIC (Escherichia coli; [11]) of 0.5 and an MIC (Escherichia coli; [12]) of 8. It also gave an MIC (Escherichia coli; [13]) of 0.5, an MIC (Escherichia coli; [14]) of 0.125 µg/mL and an MIC (Escherichia coli; [15]) of 0.125 µg/mL. The MIC (Escherichia coli; [16]) was 0.5 µg/mL, the “fold effect on MIC” value (Escherichia coli; overexpression of AcrAB in E. coli) was 4 fold and the MIC (Pseudomonas aeruginosa; [17]) was 2 µg/mL. For the same molecule, the MIC (Pseudomonas aeruginosa; [18]) was 4 µg/mL, the MIC (Pseudomonas aeruginosa; [19]) was 0.125 µg/mL and the MIC (Pseudomonas aeruginosa; [20]) was 2 µg/mL. It also gave an MIC (Pseudomonas aeruginosa; strain PAM1106, mexA::Tet) of 2 µg/mL, an MIC (Pseudomonas aeruginosa; strain PAM1154, oprM::Hg) of 2 µg/mL and an MIC (Klebsiella pneumoniae; KPM1026a, alone, read-out: MIC) of 0.25 µg/mL. It also gave an MIC (Klebsiella pneumoniae; [21]) of 0.25 µg/mL, an MIC (Klebsiella pneumoniae; KPM3532 (TolQ::M189K), alone) greater than 64 µg/mL and an MIC (Klebsiella pneumoniae; KPM3532, TolQ::M189K) greater than 64 µg/mL. The MIC (Klebsiella pneumoniae; KPM3534 (TolQ::S31F), alone) was greater than 64 µg/mL, the MIC (Klebsiella pneumoniae; KPM3534, TolQ::S31F) was greater than 64 µg/mL and the MIC (Klebsiella pneumoniae; KPM4235, TolQ::IP(183–1844)PR) was greater than 64 µg/mL. It also gave an MIC (Klebsiella pneumoniae; KPM4236, TolQ::TAA at aa 103) greater than 64 µg/mL, an MIC (Klebsiella pneumoniae; KPM4238, TolQ::S25F) greater than 64 µg/mL and an MIC (Klebsiella pneumoniae; KPM4239, TolQ::S28F) greater than 64 µg/mL. It also gave an MIC (Klebsiella pneumoniae; KPM4240, TolQ::S25Y) greater than 64 µg/mL, an MIC (Klebsiella pneumoniae; [22]) of 0.25 µg/mL and an MIC (Klebsiella pneumoniae; [23]) of 0.25 µg/mL. For the same molecule, the MIC (Klebsiella pneumoniae; [24]) was greater than 64 µg/mL, the MIC (Klebsiella pneumoniae; [25]) was greater than 64 µg/mL and the MIC (Klebsiella pneumoniae; strain KPM2600, ΔompK35) was 0.25 µg/mL. For the same molecule, the MIC (Klebsiella pneumoniae; [26]) was greater than 64 µg/mL, the MIC (Klebsiella pneumoniae; strain KPM2696, ΔacrB) was 0.25 µg/mL and the MIC (Enterobacterales) was 0.125 to 0.5 µg/mL (≈ 0.319 to 1.28 µM).
